From patent US7695918B2 (priority 2002, dated 2010)
Like-named read-outs stand apart in the source and are kept apart here.

Tests used:
protein prion [1] = biological target: protein prion (Homo sapiens, UniProt P04156); format: binding; conditions: LCR
[2] = biological target: recPrP (recombinant protein prion) (Homo sapiens, UniProt P04156); conditions: recPrP 42 μM diluted with an equivalent volume of streptomycin 1 g/ml; dried on mica
protein prion [3] = format: binding, human; conditions: 50 μg/ml final concentration streptomycin; LCR(+) at any proteinase K concentration, LCR(−) only without digestion
PrP^sc [4] = biological target: PrP^sc (Ovis aries, UniProt P23907); format: binding; conditions: 2000 μg streptomycin; PrP^sc from 920 μg sheep brain afflicted with trembling; from increase of apparent molecular weight
Sequence of PrP^sc (Ovis aries, UniProt P23907) (P23907 25-233 limits assumed): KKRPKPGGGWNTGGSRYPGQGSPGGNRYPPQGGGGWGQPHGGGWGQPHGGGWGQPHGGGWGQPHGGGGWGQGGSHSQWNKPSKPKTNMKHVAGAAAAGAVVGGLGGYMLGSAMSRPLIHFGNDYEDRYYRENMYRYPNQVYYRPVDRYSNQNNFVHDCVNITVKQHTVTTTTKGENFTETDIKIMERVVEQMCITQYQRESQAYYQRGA

PrP^sc [5] = conditions: precipitates, ESB bovine brain homogenate
PrP^sc [6] = format: binding, bovine
PrP^sc [7] = tested on: PrP^sc

**Q.** How did the “apparent size of the protein prion band after streptomycin treatment” value (protein prion [1]; 0.1 g/ml streptomycin, no proteinase K digestion) turn out when [H]/N=C(/N)N[C@H]1[C@H](O)[C@@H](O)[C@H](O[C@@H]2O[C@@H](C)[C@](O)(C=O)[C@H]2O[C@@H]2O[C@@H](CO)[C@H](O)[C@@H](O)[C@@H]2NC)[C@@H](N/C(N)=N\[H])[C@@H]1O [streptomycin] was run?
**A.** approximately 50 kDa

**Q.** What about the “binding of streptomycin to the protein prion” value (protein prion [1]; absence of digestion by proteinase K, streptomycin 0.1 and 0.2 g/ml) of the same compound?
**A.** bonds well to the protein prion

**Q.** And the “surface organization of the film of the recPrP/streptomycin mixture” value [2]?
**A.** amorphous surface

**Q.** And the “apparent molecular mass of the band observed after streptomycin treatment” value (protein prion [3])?
**A.** approximately 35 kDa

**Q.** What about the “number of streptomycin molecules attached per band of PrP^sc” value (PrP^sc [4]) of the same compound?
**A.** 10 to 12 molecules of streptomycin per band of PrP^sc

**Q.** What about the “dilution down to which PrP^sc is detectable” value (PrP^sc [5]; 5 μl streptomycin, without streptomycin the limit is 1/16) of the same compound?
**A.** 1/128

**Q.** And the “dilution down to which PrP^sc is detectable” value (PrP^sc [5]; 10 μl streptomycin, most diluted sample tested)?
**A.** 1/256

**Q.** What about the “precipitation of PrP^sc” value (PrP^sc [6]; 20 μl streptomycin at 1 g/ml, 100 μl bovine brain suspension after proteinase K, second hour at 37° C.) of the same compound?
**A.** totally precipitated the PrP^sc

**Q.** And the “location of PrP^sc bands (supernatant or bottom)” value (PrP^sc [6]; brain sample diluted 1/25, proteinase K and streptomycin added simultaneously, one hour incubation)?
**A.** in the bottom in the presence of any concentration of streptomycin

**Q.** What about the “detection of PrP^sc compared with the reference technique” value (PrP^sc [7]) of the same compound?
**A.** permits better detection of cases that are slightly positive
